Assay results from patent publication US11236081B2, “Crystalline salts of corydalmine” (priority 2018, dated 2022).
Values joined by “and” are separate entries in the source; they are usually repeats but may differ in a detail not shown here. Identical values can stand only once.

Key:
[1] = Dynamic vapor sorption (DVS), hygroscopicity at 25° C.; format: physicochemical
Method: Dynamic Vapor Sorption (DVS)
DVS was determined using DVS Intrinsic (SMS, UK). Transfer about 20 to 50 mg of the compound into a SMS dynamic vapor sorption model DVS and record the weight change with respect to a varying atmospheric humidity at 25° C.

[2] = Solubility studies in water at 2 hours; format: physicochemical
[3] = Pharmacokinetic study: plasma concentration and plasma PK parameters after IV/PO dosing (LC-MS/MS, WinNonlin); format: in vivo, Male SD Rat; conditions: for concentration in plasma / concentration in plasma, Mean: male SD rat, PO 10 mg/kg (equal to freebase), vehicle 20% HP-β-CD in water (POA, freebase) or water (salts); for concentration in plasma: individual rats; for concentration in plasma, Mean: mean n=3
Source text: Pharmacokinetic and Brain Penetration Study
Dose formulation processing during dosing: The dose formulations will be kept at room temperature.
Concentrations of Test Article in the plasma samples will be analyzed using a LC-MS/MS method.
WinNonlin (Phoenix™, version 6.1) or other similar software will be used for pharmacokinetic calculations. The following pharmacokinetic parameters will be calculated, whenever possible from the plasma concentration versus time data:
IV administration: T1/2, C0, AUClast, AUCinf, MRTinf, Cl, Vss, Number of Points for Regression.
PO administration: T1/2, Cmax, Tmax, MRTinf, AUCinf, AUClast, F %, Number of Points for Regression.
The pharmacokinetic data will be described using descriptive statistics such as mean, standard deviation.

[4] = plasma, PO (group POE), 10 mg/kg, individual rats R40, R41, R42, 10 mg/kg
[5] = plasma, PO (group POE), 10 mg/kg, mean of R40-R42

Question: Which “hygroscopicity (DVS)” value ([1]; DVS, 25° C.) does the source give for `COc1cc2c(cc1OC)[C@@H]1Cc3ccc(O)c(OC)c3CN1CC2.O=C(O)C(=O)O` [TLZ-16 oxalate] here?
Answer: slightly hygroscopic

Question: What about the “solid form after DVS test” value ([1]; after DVS test) of the same molecule?
Answer: does not change

Question: And the “water absorbed in DVS” value ([1]; at 80% RH, 25° C.)?
Answer: about 0.25 wt %

Question: What about the solubility in water [2] of the same molecule?
Answer: approximately 19.2 mg/mL

Question: What about the F ([3]; PO (group POE), 10 mg/kg, individual rats R40, R41, R42, 10 mg/kg) of the same molecule?
Answer: 18.5% and 28.8% and 25.3%

Question: And the “F, Mean” value ([3]; PO (group POE), 10 mg/kg, mean of R40-R42)?
Answer: 24.2%

Question: What about the concentration in plasma ([3]; 0 h) of the same molecule?
Answer: BLOQ (BLOQ = below limit of quantitation (0.2 ng/mL))

Question: And the concentration in plasma ([3]; 0.25 h, 10 mg/kg)?
Answer: 302 ng/mL and 368 ng/mL and 131 ng/mL

Question: And the “concentration in plasma, Mean” value ([3]; 0.25 h)?
Answer: 267 ng/mL

Question: And the concentration in plasma ([3]; 0.5 h, 10 mg/kg)?
Answer: 270 ng/mL and 309 ng/mL and 148 ng/mL

Question: What about the “concentration in plasma, Mean” value ([3]; 0.5 h) of the same molecule?
Answer: 242 ng/mL

Question: And the concentration in plasma ([3]; 1 h, 10 mg/kg)?
Answer: 143 ng/mL and 200 ng/mL and 121 ng/mL

Question: What about the “concentration in plasma, Mean” value ([3]; 1 h) of the same molecule?
Answer: 155 ng/mL

Question: And the concentration in plasma ([3]; 2 h, 10 mg/kg)?
Answer: 70.8 ng/mL and 86.0 ng/mL and 156 ng/mL

Question: And the “concentration in plasma, Mean” value ([3]; 2 h)?
Answer: 104 ng/mL

Question: And the concentration in plasma ([3]; 4 h, 10 mg/kg)?
Answer: 63.1 ng/mL and 120 ng/mL and 95.0 ng/mL

Question: What about the “concentration in plasma, Mean” value ([3]; 4 h) of the same molecule?
Answer: 92.7 ng/mL

Question: What about the concentration in plasma ([3]; 8 h, 10 mg/kg) of the same molecule?
Answer: 10.1 ng/mL and 56.8 ng/mL and 29.1 ng/mL

Question: And the “concentration in plasma, Mean” value ([3]; 8 h)?
Answer: 32.0 ng/mL

Question: And the concentration in plasma ([3]; 24 h)?
Answer: BLOQ (BLOQ = below limit of quantitation (0.2 ng/mL))

Question: And the AUCInf [3, 4]?
Answer: 629 ng·h/mL and 1369 ng·h/mL and 859 ng·h/mL

Question: What about the AUClast [3, 4] of the same molecule?
Answer: 600 ng·h/mL and 960 ng·h/mL and 756 ng·h/mL

Question: What about the AUClast/D [3, 4] of the same molecule?
Answer: 60 kg·ng·h/mL/mg and 96 kg·ng·h/mL/mg and 75.6 kg·ng·h/mL/mg

Question: What about the “AUC—% Extrap_obs” value [3, 4] of the same molecule?
Answer: 4.67% and 29.8% and 12.0%

Question: What about the Cmax [3, 4] of the same molecule?
Answer: 302 ng/mL and 368 ng/mL and 156 ng/mL

Question: And the MRTInf_obs [3, 4]?
Answer: 2.59 h and 6.60 h and 3.95 h

Question: What about the T1/2 [3, 4] of the same molecule?
Answer: 2.02 h and 4.98 h and 2.46 h

Question: And the Tmax [3, 4]?
Answer: 0.25 h (2×) and 2 h

Question: What about the “AUCInf, Mean” value [3, 5] of the same molecule?
Answer: 952 ng·h/mL

Question: What about the “AUClast, Mean” value [3, 5] of the same molecule?
Answer: 772 ng·h/mL

Question: And the AUClast/D, Mean [3, 5]?
Answer: 77.2 kg·ng·h/mL/mg

Question: What about the “AUC—% Extrap_obs, Mean” value [3, 5] of the same molecule?
Answer: 15.5%

Question: And the “Cmax, Mean” value [3, 5]?
Answer: 275 ng/mL

Question: And the “MRTInf_obs, Mean” value [3, 5]?
Answer: 4.38 h

Question: And the “T1/2, Mean” value [3, 5]?
Answer: 3.15 h

Question: And the “Tmax, Mean” value [3, 5]?
Answer: 0.833 h
